Reference: patent publication US7015239B2, “Fungicide for plants” (Valent BioSciences, Inc., priority 2003, dated 2006)

Key:
Botrytis cinerea [1] = test: Detached bean leaf bioassay, fungal control; format: in vivo; details: three days after inoculation, 100 minus percent necrotic area
Protocol: (§1) Detached Bean Leaf Bioassay
(§2) Compound solution: Compound solutions were prepared by diluting compound stock solutions (1.0% w/v compound in DMSO) to 200 ppm with 0.01% w/v Triton X-100.
Spore solution preparation: Botrytis cinerea spores were taken from 6-week-old cultures grown at 22 C on full strength potato dextrous agar (PDA) plates and harvested in 1:16 frozen orange juice concentrate:water. Botrytis cinerea spore solutions were prepared by diluting spore cultures to 5×10^4 spores/mL with 1:16 frozen orange juice concentrate:water.
(§3) Plant material: Middle trifoliate leaves of greenhouse grown Phaseolus vulgaris (Bush bean cv. Blue Lake 274) were excised and placed on a plastic grid above a tray containing moist towels.
Treatment method: One half of the adaxial surface of the leaf was treated with the compound solution (100:L) using a 3 cm Bacti Cell Spreader. A blank consisted of 0.01% w/v Triton X-100. A commercial fungicide control (200 ppm diluted with water) consisted of Scala. […]
Fungal control rating: Three days after inoculation with Botrytis, the percent necrotic area under the inoculation droplet was determined. Since the areas under the blank (0.01% w/v Triton X-100) were 100% infected, fungal control was expressed as 100 minus the percent necrotic area, and thus 0% infected is 100% fungal control (n=3 leaves/compound, 5 inoculation droplets/leaf, Table 2).

Rhizoctonia solani = test: Contact evaluation (microtiter plate); format: cell-based; details: Rhizoctinia solani
Protocol: (§4) Compound solution: Contact evaluations were conducted to determine the anti-fungal activity of each compound against Botrytis cinerea, Sclerotinia sclerotiorum, Pythium aphanidermatum, Rhizoctonia solani, Cercospora arachidicola, Mycosphaerella fijiensis, and Monilinia laxa. Five milligrams of each compound were dissolved in 0.5 milliliter of DMSO for a compound stock solution of 1.0% w/v. Compound stock solutions were serial diluted with DMSO to 20, 10, and 2 ppm final well concentration.
(§5) Fungi preparation: Botrytis cinerea spores were taken from 6-week-old cultures grown at 22C on full strength potato dextrous agar (PDA) plates. Sclerotinia sclerotiorum, Pythium aphanidermatum, Rhizoctonia solani, and Monilinia laxa mycelia were taken from 4- to 10-day-old shake flask cultures grown at room temperature on full strength potato dextrous broth (PDB). Cercospora arachidicola mycelia were taken from 10- to 14-day-old shake flask cultures grown at room temperature on a full strength PDB amended with peanut oil. Mycosphaerella fijiensis mycelia were taken from 10- to 14-day-old shake flask cultures grown at room temperature on V8 juice broth. Sclerotinia sclerotiorum, Pythium aphanidermatum, Rhizoctonia solani, Cercospora arachidicola, and Mycosphaerella fijiensis mycelia (0.4 g mycelia) were blended for 45 seconds in 20 mL sterile de-ionized water. Monilinia laxa mycelia (1 g mycelia) was blended for 45 seconds in 30 mL of sterile de-ionized water. Botrytis cinerea spores were diluted with quarter strength PDB to 1×10^5 spores/mL final well concentration. All mycelia were diluted in water (1:5 mycelia:water) before distributing into the wells.
(§6) Microtiter plate preparation: Compound solution (10:L), quarter strength PDB (900:L) and fungi preparation (100:L) were sequentially distributed into 48-well microtiter plates (n=3 replications/compound/rate). A blank consisted of quarter strength PDB and fungi preparation. Commercial fungicide controls (100 ppm diluted with water) consisted of Scala for Botrytis cinerea, Dithane F-45 for Mycosphaerella fijiensis, and Benlate for Sclerotinia sclerotiorum, Pythium aphanidermatum, Rhizoctonia solani, Cercospora arachidicola, and Monilinia laxa. Plates were shaken in a circular rotator at room temperature for 20 minutes, then incubated at 25 C for 24 to 72 hours, depending on the pathogen.
(§7) Fungal control ratings: Fungal growth in wells containing the compounds were compared to the positive control and fungal inhibition was rated as full, partial, or none. Final readings were the average of the three wells (Table 1).

Pythium aphanidermatum = test: Contact evaluation (microtiter plate); format: cell-based
Protocol: as §4, §5, §6, §7

Mycosphaerella fijiensis = test: Contact evaluation (microtiter plate); format: cell-based
Protocol: as §4, §5, §6, §7

Cercospora arachidicola = test: Contact evaluation (microtiter plate); format: cell-based
Protocol: as §4, §5, §6, §7

Botrytis cinerea [2] = test: Contact evaluation (microtiter plate); format: cell-based
Protocol: as §4, §5, §6, §7

Sclerotinia sclerotiorum = test: Contact evaluation (microtiter plate); format: cell-based; details: Sclerotinia sclerotionum
Protocol: as §4, §5, §6, §7

Monilinia laxa = test: Contact evaluation (microtiter plate); format: cell-based
Protocol: as §4, §5, §6, §7

[3] = system: Phaseolus vulgaris (Bush bean cv. Blue Lake 274) leaves; test: Detached bean leaf bioassay, phytotoxicity rating; format: in vivo
Protocol: as §1, §2, §3
Treatment method: One half of the adaxial surface of the leaf was treated with the compound solution (100:L) using a 3 cm Bacti Cell Spreader. A blank consisted of 0.01% w/v Triton X-100. A commercial fungicide control (200 ppm diluted with water) consisted of Scala. After the solutions dried, the trays containing the leaves were covered and held one day in a growth chamber (22 C). The adaxial surfaces of the leaves were then inoculated with 5–60:L droplets of Botrytis cinerea spore solution.
Phytotoxicity ratings: Phytotoxicity was rated as 0=no phytotoxicity, l=slight phytotoxicity, 2=moderate phytotoxicity, or 3=excessive phytotoxicity (Table 2).

Cc1ccc(-c2cc(-c3ccc(C)cc3)[n+](-c3ccccc3)c(-c3cccc(C)c3)c2)cc1.[O-][Cl+3]([O-])([O-])O [formula I]
None: Control of fungi (full, partial, none) (Rhizoctonia solani; fungicide rate 2 ppm) | Control of fungi (full, partial, none) (Cercospora arachidicola; fungicide rate 2 ppm)
Full: Control of fungi (full, partial, none) (Rhizoctonia solani; fungicide rate 10 ppm) | Control of fungi (full, partial, none) (Rhizoctonia solani; fungicide rate 20 ppm) | Control of fungi (full, partial, none) (Pythium aphanidermatum; fungicide rate 2 ppm) | Control of fungi (full, partial, none) (Pythium aphanidermatum; fungicide rate 10 ppm) | Control of fungi (full, partial, none) (Pythium aphanidermatum; fungicide rate 20 ppm) | Control of fungi (full, partial, none) (Mycosphaerella fijiensis; fungicide rate 2 ppm) | Control of fungi (full, partial, none) (Mycosphaerella fijiensis; fungicide rate 10 ppm) | Control of fungi (full, partial, none) (Mycosphaerella fijiensis; fungicide rate 20 ppm) | Control of fungi (full, partial, none) (Cercospora arachidicola; fungicide rate 10 ppm) | Control of fungi (full, partial, none) (Cercospora arachidicola; fungicide rate 20 ppm) | Control of fungi (full, partial, none) (Botrytis cinerea [2]; fungicide rate 10 ppm) | Control of fungi (full, partial, none) (Botrytis cinerea [2]; fungicide rate 20 ppm) | Control of fungi (full, partial, none) (Sclerotinia sclerotiorum; fungicide rate 2 ppm) | Control of fungi (full, partial, none) (Sclerotinia sclerotiorum; fungicide rate 10 ppm) | Control of fungi (full, partial, none) (Sclerotinia sclerotiorum; fungicide rate 20 ppm) | Control of fungi (full, partial, none) (Monilinia laxa; fungicide rate 2 ppm) | Control of fungi (full, partial, none) (Monilinia laxa; fungicide rate 10 ppm) | Control of fungi (full, partial, none) (Monilinia laxa; fungicide rate 20 ppm)
Slight: Phytotoxity (200 ppm) [3]
Partial: Control of fungi (full, partial, none) (Botrytis cinerea [2]; fungicide rate 2 ppm)
93%: Botrytis cinerea control (200 ppm) (Botrytis cinerea [1])
